Assay type in all cases: biochemical
For experiment [1], the target named is T1, JAK3 (Homo sapiens, UniProt P52333).
T1 sequence (P52333 1-1124): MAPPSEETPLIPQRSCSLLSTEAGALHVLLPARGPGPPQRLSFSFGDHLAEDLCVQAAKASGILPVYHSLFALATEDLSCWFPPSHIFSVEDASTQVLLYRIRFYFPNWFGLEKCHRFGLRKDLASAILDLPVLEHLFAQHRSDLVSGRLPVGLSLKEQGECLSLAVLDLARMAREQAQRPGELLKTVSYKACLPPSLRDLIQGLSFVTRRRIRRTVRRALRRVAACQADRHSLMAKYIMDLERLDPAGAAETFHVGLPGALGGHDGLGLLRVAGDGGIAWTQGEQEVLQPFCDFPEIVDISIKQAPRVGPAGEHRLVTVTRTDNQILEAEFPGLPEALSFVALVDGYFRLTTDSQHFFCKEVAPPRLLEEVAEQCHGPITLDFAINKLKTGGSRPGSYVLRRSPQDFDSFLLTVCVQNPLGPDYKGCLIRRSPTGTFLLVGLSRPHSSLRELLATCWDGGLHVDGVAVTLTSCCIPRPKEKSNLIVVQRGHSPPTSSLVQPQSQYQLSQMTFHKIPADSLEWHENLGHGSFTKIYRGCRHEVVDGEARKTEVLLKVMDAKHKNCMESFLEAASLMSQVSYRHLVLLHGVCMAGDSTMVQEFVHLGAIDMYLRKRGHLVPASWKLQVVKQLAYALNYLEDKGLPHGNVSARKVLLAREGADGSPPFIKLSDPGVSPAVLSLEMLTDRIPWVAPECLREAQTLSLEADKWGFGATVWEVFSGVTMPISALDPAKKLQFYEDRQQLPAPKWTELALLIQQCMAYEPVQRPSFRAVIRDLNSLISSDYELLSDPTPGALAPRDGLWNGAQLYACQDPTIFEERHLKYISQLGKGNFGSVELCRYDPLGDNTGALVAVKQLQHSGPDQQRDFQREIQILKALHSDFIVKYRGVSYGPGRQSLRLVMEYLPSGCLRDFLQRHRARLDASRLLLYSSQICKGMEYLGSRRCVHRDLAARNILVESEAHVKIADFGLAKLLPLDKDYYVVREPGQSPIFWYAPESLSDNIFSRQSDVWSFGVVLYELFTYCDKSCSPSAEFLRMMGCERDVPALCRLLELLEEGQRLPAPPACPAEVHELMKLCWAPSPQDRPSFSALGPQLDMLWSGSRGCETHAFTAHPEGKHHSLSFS
Nature of the experiment: JAK3 inhibition assay (standard radioactive enzyme assay). The conditions noted are these: average Ki if more than one value determined.

The target in experiment [2] is JAK2 (Homo sapiens, UniProt O60674). Nature of the experiment: JAK2 inhibition assay (radioactive enzyme assay, as for JAK3). The conditions noted are these: average Ki if more than one value determined. In short, it runs like this: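 Both kinases: poly(Glu)4Tyr substrate in 100 mM HEPES pH 7.4, 10 mM MgCl2, 1 mM DTT. Run 20 min at 25° C, TCA stop, filter-bound ³³P counted, Ki(app) fitted after background subtraction. JAK3: final [γ-³³P]ATP 5 μM, enzyme added as 2 nM solution. JAK2: final poly(Glu)4Tyr 15 μM, final ATP 12 μM.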
Chain of JAK2 (O60674 whole entry, species assumed): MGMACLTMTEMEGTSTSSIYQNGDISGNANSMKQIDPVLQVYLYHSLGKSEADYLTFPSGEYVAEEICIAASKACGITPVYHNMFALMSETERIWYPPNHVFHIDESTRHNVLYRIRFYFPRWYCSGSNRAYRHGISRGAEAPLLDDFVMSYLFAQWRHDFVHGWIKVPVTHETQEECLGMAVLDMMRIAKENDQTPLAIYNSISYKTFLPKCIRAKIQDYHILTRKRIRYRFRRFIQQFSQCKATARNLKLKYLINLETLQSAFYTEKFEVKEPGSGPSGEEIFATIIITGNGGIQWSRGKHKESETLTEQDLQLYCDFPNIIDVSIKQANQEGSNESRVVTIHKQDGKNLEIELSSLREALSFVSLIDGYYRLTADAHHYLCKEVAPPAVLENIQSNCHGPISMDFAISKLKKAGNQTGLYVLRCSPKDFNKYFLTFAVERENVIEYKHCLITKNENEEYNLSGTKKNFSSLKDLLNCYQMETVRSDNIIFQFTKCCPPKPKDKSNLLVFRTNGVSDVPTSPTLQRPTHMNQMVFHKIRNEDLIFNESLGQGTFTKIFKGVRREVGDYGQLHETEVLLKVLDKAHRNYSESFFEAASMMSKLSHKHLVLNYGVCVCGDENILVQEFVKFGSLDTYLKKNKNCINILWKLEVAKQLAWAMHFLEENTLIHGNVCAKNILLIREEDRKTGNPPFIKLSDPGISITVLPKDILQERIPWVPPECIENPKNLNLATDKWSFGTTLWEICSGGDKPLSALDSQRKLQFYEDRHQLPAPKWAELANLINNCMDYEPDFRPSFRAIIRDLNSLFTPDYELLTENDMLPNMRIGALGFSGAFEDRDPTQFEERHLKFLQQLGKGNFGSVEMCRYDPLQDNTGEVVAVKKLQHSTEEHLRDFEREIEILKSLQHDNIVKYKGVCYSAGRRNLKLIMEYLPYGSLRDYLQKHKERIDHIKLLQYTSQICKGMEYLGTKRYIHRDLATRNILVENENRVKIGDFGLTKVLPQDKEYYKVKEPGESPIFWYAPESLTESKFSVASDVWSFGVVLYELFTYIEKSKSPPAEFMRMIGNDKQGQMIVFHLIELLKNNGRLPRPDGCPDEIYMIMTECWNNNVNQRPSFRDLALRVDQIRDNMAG

The target of experiment [3] is ROCK (Homo sapiens, UniProt Q13464). Nature of the experiment: ROCK inhibition assay, standard radioactive enzyme assay ("33P"). The procedure: Some compounds were screened for their ability to inhibit ROCK using a standard radioactive enzyme assay. Assays were carried out in a solution containing 100 mM HEPES (pH 7.5), 10 mM MgCl2, 25 mM NaCl, 2 mM DTT, and 1.5% DMSO. Final substrate concentrations in the assay were 13 μM [γ-^33P] ATP (25 mCi ^33P ATP/mmol ATP, Perkin Elmer, Cambridge, Mass./Sigma Chemicals, St Louis, Mo.) and 27 μM Myelin Basic Protein (MBP). Final enzyme concentration in the assay was 5 nM ROCK. Assays were carried out at room temperature. 1.5 μl of DMSO stock containing serial dilutions of the compound of the present invention (concentrations ranging from 10 μM to 2.6 nM) was placed in a 96 well plate. 50 μl of Solution 1 (100 mM HEPES (pH 7.5), 10 mM MgCl2, […]) was added to the plate. The reaction was initiated by addition of 50 μl of Solution 2 (100 mM HEPES (pH 7.5), 10 mM MgCl2, 4 mM DTT, […] and 10 nM ROCK). After 2 hours the reaction was quenched with 50 μL of 30% trichloroacetic acid (TCA, Fisher) containing 9 mM ATP. Transfer of 140 μL of the quenched reaction to a glass fiber filter plate (Corning, Cat. No. 3511) was followed by washing 3 times with 5% TCA. 50 μL of Optima Gold scintillation fluid (Perkin Elmer) was added and the plates were counted on a Top Count (Perkin Elmer). After removing mean background values for all of the data points the data was fit using Prism software to obtain a Ki(app).
Chain of ROCK (Q13464 whole entry): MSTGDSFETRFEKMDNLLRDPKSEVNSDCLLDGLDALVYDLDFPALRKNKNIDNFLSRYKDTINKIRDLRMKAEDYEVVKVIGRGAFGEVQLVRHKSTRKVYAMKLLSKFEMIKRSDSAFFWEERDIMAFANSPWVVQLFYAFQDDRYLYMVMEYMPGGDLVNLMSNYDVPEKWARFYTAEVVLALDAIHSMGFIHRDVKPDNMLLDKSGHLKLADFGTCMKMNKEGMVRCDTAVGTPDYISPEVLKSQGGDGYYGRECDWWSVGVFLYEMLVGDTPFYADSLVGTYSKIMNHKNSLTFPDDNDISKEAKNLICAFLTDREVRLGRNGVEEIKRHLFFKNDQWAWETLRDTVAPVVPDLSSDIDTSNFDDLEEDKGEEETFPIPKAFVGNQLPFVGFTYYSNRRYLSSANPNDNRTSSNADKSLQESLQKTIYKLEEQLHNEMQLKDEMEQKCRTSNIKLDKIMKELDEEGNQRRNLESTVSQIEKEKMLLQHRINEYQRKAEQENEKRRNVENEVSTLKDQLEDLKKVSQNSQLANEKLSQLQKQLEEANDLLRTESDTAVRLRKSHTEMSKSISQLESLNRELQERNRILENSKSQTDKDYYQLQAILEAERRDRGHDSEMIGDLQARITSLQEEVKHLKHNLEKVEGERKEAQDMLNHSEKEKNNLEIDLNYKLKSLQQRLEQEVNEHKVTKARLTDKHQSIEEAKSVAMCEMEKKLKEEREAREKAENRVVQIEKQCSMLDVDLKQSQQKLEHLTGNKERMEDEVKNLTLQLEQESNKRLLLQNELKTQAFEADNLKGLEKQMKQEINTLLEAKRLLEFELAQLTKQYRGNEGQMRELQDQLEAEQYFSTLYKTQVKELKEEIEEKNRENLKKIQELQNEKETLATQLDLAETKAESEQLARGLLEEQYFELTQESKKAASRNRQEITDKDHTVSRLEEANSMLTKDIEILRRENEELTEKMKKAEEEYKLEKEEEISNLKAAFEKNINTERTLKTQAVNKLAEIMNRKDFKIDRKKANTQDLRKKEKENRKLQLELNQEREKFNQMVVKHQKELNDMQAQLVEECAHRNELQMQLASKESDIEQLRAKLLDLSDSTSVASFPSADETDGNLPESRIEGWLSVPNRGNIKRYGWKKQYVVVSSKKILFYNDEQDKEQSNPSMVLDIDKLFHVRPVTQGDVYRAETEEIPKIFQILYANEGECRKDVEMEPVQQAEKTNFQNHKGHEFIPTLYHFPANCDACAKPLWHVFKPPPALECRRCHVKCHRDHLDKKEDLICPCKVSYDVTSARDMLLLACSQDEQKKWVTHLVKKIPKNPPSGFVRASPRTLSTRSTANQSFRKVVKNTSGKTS

The target in experiment [4] is T2, ROCK I (AA 6-553) (Homo sapiens, UniProt Q13464).
T2 construct: ROCK I (AA 6-553)
T2 sequence (Q13464 6-553, species assumed): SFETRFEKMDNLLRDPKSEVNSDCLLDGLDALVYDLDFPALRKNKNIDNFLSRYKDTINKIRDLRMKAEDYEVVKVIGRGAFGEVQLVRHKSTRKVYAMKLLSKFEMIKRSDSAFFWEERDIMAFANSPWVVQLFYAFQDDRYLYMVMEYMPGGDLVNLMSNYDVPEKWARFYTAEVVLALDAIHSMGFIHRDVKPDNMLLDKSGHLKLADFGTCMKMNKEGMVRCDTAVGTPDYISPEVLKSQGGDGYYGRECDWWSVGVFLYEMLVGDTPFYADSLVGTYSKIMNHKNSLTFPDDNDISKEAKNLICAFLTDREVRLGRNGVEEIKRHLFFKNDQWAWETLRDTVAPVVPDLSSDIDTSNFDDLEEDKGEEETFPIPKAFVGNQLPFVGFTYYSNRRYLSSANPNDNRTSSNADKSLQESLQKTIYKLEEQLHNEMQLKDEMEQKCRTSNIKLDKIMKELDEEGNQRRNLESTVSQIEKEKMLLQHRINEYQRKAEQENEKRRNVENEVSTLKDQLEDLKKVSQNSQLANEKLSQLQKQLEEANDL
Nature of the experiment: ROCK inhibition assay, standard coupled enzyme system ("Enzyme"). Particulars: enzyme-linked assay. In short, it runs like this: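 ROCK I (AA 6-553) at 45 nM and 30 °C with 45 μM ATP and 200 μM peptide, in 100 mM HEPES pH 7.5, 10 mM MgCl2, 25 mM NaCl, 2 mM DTT, 1.5% DMSO. ADP output read by a PK/LDH coupled system: 2.5 mM PEP, 350 μM NADH, 30 μg/ml PK, 10 μg/ml LDH.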

In experiment [5] the target is T3, full length Aurora-A (AA 1-403) (Homo sapiens, UniProt O14965).
T3 construct: full length Aurora-A (AA 1-403)
T3 sequence (O14965 1-403): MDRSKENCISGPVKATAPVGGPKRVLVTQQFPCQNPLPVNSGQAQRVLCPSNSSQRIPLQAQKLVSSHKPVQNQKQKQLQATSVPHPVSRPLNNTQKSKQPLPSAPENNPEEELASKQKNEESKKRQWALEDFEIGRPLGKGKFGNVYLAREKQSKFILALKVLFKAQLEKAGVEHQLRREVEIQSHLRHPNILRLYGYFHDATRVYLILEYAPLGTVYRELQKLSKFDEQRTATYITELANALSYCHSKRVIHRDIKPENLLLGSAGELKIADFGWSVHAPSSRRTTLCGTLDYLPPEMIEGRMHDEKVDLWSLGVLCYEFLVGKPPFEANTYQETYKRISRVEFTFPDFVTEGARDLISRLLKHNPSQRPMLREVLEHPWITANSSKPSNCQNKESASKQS
Nature of the experiment: Aurora-A inhibition assay, standard coupled enzyme system. Particulars: average Ki if more than one value determined.

For experiment [6], the target named is T4, Aurora-C (Homo sapiens, UniProt Q9UQB9).
T4 sequence (Q9UQB9 1-309): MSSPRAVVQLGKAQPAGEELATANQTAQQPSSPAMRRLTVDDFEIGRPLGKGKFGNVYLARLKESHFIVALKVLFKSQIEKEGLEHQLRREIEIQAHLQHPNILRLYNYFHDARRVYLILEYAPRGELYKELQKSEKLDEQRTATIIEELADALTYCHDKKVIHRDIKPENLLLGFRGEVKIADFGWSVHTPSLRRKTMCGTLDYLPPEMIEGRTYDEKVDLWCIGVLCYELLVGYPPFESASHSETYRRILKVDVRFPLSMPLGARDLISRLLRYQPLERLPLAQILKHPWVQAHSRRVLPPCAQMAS
Nature of the experiment: Aurora-C inhibition assay, coupled enzyme system as for Aurora-A. The conditions noted are these: average Ki if more than one value determined. The procedure:
Compounds were screened for their ability to inhibit full length Aurora-A (AA 1-403) activity using a standard coupled enzyme system (Fox et al., Protein Sci. 7, pp. 2249 (1998)). Reactions were carried out in a solution containing 100 mM HEPES (pH 7.5), 10 mM MgCl2, 25 mM NaCl, 300 μM NADH, 1 mM DTT and 3% DMSO. Final substrate concentrations in the assay were 200 μM ATP (Sigma Chemicals, St Louis, Mo.) and 800 μM peptide (LRRASLG, American Peptide, Sunnyvale, Calif.). Reactions were carried out at 30° C. and 35 nM Aurora-A. Final concentrations of the components of the coupled enzyme system were 2.5 mM phosphoenolpyruvate, 200 μM NADH, 60 μg/ml pyruvate kinase and 20 μg/ml lactate dehydrogenase.
An assay stock buffer solution was prepared containing all of the reagents listed above with the exception of ATP and the test compound of interest. The assay stock buffer solution (60 μl) was incubated in a 96 well plate with 2 μl of the test compound of interest at final concentrations spanning 0.002 μM to 30 μM at 30° C. for 10 min. Typically, a 12 point titration was conducted by preparing serial dilutions (from 1 mM compound stocks) with DMSO of the test compounds in daughter plates. The reaction was initiated by the addition of 5 μl of ATP (final concentration 200 μM). Rates of reaction were obtained using a Molecular Devices Spectramax plate reader (Sunnyvale, Calif.) over 10 min at 30° C. The Ki values were determined from the rate data as a function of inhibitor concentration using computerized nonlinear regression (Prism 3.0, Graphpad Software, San Diego, Calif.). Aurora-C activity was screened in a similar manner using Aurora-C protein. Aurora-B activity was screened using a radioactive assay, such as described in Examples 1 and 2, but using Aurora-B protein.

The target in experiment [7] is Aurora-B (Homo sapiens, UniProt Q96GD4). Nature of the experiment: Aurora-B inhibition assay, radioactive assay. The conditions noted are these: average Ki if more than one value determined. In short, it runs like this:
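Radiometric [γ-33P]ATP kinase assay run as described for JAK3/ROCK but with Aurora-B protein; 33P incorporation into substrate measured by filter capture and scintillation counting after TCA quench. Background-subtracted data fit to give Ki(app).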

Where two headings read alike, the source gives them in different places.

Chain of Aurora-B (Q96GD4 whole entry): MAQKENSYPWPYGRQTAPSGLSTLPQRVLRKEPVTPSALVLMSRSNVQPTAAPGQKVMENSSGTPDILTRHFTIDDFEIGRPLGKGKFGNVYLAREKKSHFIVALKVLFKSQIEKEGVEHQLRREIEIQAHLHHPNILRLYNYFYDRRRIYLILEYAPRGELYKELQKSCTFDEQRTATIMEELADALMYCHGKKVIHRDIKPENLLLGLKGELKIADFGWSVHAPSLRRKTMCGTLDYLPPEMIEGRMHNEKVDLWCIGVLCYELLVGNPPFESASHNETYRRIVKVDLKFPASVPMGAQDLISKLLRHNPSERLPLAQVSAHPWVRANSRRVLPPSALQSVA

`Nc1cccc(CNc2cc(-c3c[nH]c4ncccc34)ncn2)c1` [Compound 28]: the Ki in experiment [1], in experiment [2] and in experiment [3] was less than 500 nM throughout.

Regarding `Cc1cc(N[C@@H](C)C(=O)NCCNS(C)(=O)=O)nc(-c2c[nH]c3ncc(Cl)cc23)n1` [Compound 450], the Ki in experiment [2] is 500 to 5000 nM; in experiment [4], 500 to 5000 nM; in experiment [5], less than 500 nM; in experiment [6] it was less than 500 nM; in experiment [7], less than 500 nM.

Turning to `C[C@H](Nc1nc(-c2c[nH]c3ncc(Cl)cc23)ncc1F)C(=O)NCCc1ccc(S(N)(=O)=O)cc1` [Compound 446], the Ki was 500 to 5000 nM in experiment [2]; 500 to 5000 nM in experiment [4]; less than 500 nM in experiment [5]; less than 500 nM in experiment [6]; less than 500 nM in experiment [7].

As to `c1ccc(-c2cnc3[nH]cc(-c4ccccc4)c3c2)cc1` [Compound 213], the values for the Ki in experiment [3] and in experiment [5] were 500 to 5000 nM and less than 500 nM, respectively.

On to `CCc1cnc(-c2c[nH]c3ncc(Cl)cc23)nc1N[C@@H](C)c1ccc(F)cc1` [Compound 386], for which the Ki was less than 500 nM in experiment [2]; 500 to 5000 nM in experiment [4]; less than 500 nM in experiment [5]; less than 500 nM in experiment [6]; less than 500 nM in experiment [7].

For `CCOc1cccc(-c2c[nH]c3ncc(-c4ccccc4)cc23)c1` [Compound 215], the Ki in experiment [3] and in experiment [5] was 500 to 5000 nM in each case.

As for `Brc1cnc2[nH]c(-c3ccccc3)c(-c3ccccc3)c2c1` [Compound 211], the Ki was 500 to 5000 nM in experiment [3] and less than 500 nM in experiment [5].

As to `COc1ccc(OC)c(-c2c[nH]c3ncc(-c4ccccc4)cc23)c1` [Compound 216], the values for the Ki in experiment [3] and in experiment [5] were 500 to 5000 nM and less than 500 nM, respectively.

For `COc1cc(-c2c[nH]c3ncccc23)ccc1C(N)=O` [Compound 31, 2-Methoxy-4-(1H-pyrrolo[2,3-b]pyridin-3-yl)-benzamide], the Ki in experiment [3] (Ki(app)) and in experiment [5] was less than 500 nM in each case.

As to `COc1cccc(-c2c[nH]c3ncc(-c4ccccc4)cc23)c1` [Compound 214], the Ki in experiment [3] and in experiment [5] was 500 to 5000 nM in each case.

Regarding `C[C@H](Nc1nc(-c2c[nH]c3ncc(Cl)cc23)ncc1C(F)(F)F)c1ccc(F)cc1` [Compound 371], the Ki was less than 500 nM in experiment [2]; 500 to 5000 nM in experiment [4]; less than 500 nM in experiment [5]; less than 500 nM in experiment [6]; less than 500 nM in experiment [7].

Take `C[C@H](Nc1nc(-c2c[nH]c3ncc(Cl)cc23)ncc1F)C(=O)NCCn1cccc1` [Compound 443]: the Ki is less than 500 nM in experiment [2]; 500 to 5000 nM in experiment [4]; less than 500 nM in experiment [5]; less than 500 nM in experiment [6]; less than 500 nM in experiment [7].

Consider `CC(=O)NCCNC(=O)[C@H](C)Nc1nc(-c2c[nH]c3ncc(Cl)cc23)ncc1F` [Compound 444], for which the Ki in experiment [2] was 500 to 5000 nM; in experiment [4] it was 500 to 5000 nM; in experiment [5], less than 500 nM; in experiment [6] it was less than 500 nM; in experiment [7] it was less than 500 nM.

In the case of `CN(C)C(=O)c1ccc(-c2c[nH]c3ncc(-c4ccccc4)cc23)cc1` [Compound 219], the figures for the Ki in experiment [4], in experiment [3] and in experiment [5] were 500 to 5000 nM, 500 to 5000 nM and less than 500 nM, respectively.

As for `CS(=O)(=O)c1cccc(-c2c[nH]c3ncc(-c4ccccc4)cc23)c1` [Compound 218], the Ki in experiment [4], in experiment [3] and in experiment [5] was less than 500 nM in each case.

With `Brc1cnc2[nH]c(-c3ccccc3)c(-c3ccc(N4CCOCC4)cc3)c2c1` [Compound 217], the Ki was 500 to 5000 nM in experiment [4], 500 to 5000 nM in experiment [3] and less than 500 nM in experiment [5].

Source of the values: patent US8501446B2 (Vertex Pharmaceuticals Incorporated, priority 2004, dated 2013).
